One experiment has as its target T1, 5-HT4 receptor (Cavia porcellus, UniProt O70528).
T1 construct: the mixture was suspended to give receptor membrane preparations; from tissue; host or cells: guinea pig (Slc-Hartley) brain striatum membranes
Kind of experiment: Serotonin 4 (5-HT4) receptor binding assay. Also noted: species or system guinea pig. The procedure:
5-HT4 receptor binding assay and preparations of receptor membrane preparations were carried out according to a method of Grossman et al. [see British J. Pharmacol., (1993) 109, 618].
Slc-Hartley guinea pigs (body weight 300 to 400 g) were decapitated to remove brain rapidly, and striatum was isolated. To the obtained tissues were added fifteenfold of Hepes buffer (50 mM, pH7.4, 4° C.), and the mixture was homogenized by Teflon® homogenizer and centrifuged at 48,000×g (4° C.) for 15 minutes. To the resulting precipitate was added Hepes buffer (1 ml) to 30 mg by wet weight of tissues, and the mixture was suspended to give receptor membrane preparations.
0.1 nM [^3H]-GR113808 {chemical name: [1-[2-(methylsulfonylamino)ethyl]-4-piperidinyl]methyl 1-methylindole-3-carboxylate}, receptor membrane preparations, and Hepes buffer (50 mM, pH7.4, 4° C., 1 ml) containing test compounds or 30 μM serotonin were placed in an assay tube, and incubated at 37° C. for 30 minutes. On quenching the reaction, the mixture was rapidly filtered on whatman GF/B filter, which was presoaked in 0.1% polyethyleneimine for 1 hour, by using Brandel cell Harvester, and washed with ice-cooled 50 mM Tris-HCl (pH7.7, 4 ml) three times. To the filter after filtration was added ACS II scintillator, and then a radioactivity was determined by a liquid scintillation counter.
50% inhibition concentrations (IC50) were determined from inhibition rates of test compounds to specific bindings which were obtained by subtracting nonspecific bindings from total binding amounts of [^3H]-GR113808.

The next experiment deals with Male Slc-ddy mice. Put plainly: Mouse defecation assay. It counts as in vivo. Also noted: key: −: No Effect; +: Moderately Improved (p<0.05); ++: Significantly Improved (p<0.01). The conditions noted are these: 3 mg/kg orally; stool weight 30, 60 and 120 minutes after administration; Dunnett assay vs control. The procedure:
Male Slc-ddy mice (body weight 25 to 30 g) were used and allowed to ingest food and water ad libitum until commencement of experiments.
A group of 25 mice was divided into 5 groups, which 5 mice each per group were respectively transferred to fasting cages to adjust to new environments for about 1 hour. Then, each mouse was orally administered 3 mg/kg suspension of a test compound in 0.5% tragacanth solution to measure each stool weight of each group 30, 60, and 120 minutes after oral administration.
Efficacies were evaluated by Dunnett assay between test compounds and control.

Where [1] appears, read: inhibition of specific binding of 0.1 nM [3H]-GR113808, guinea pig striatum membrane preparations, 37° C., 30 minutes, read-out: IC50.

These results are taken from patent publication US7906510B2, “Amide derivative and pharmaceutical composition containing the same” (Dainippon Sumito Pharma Co., Ltd., priority 2008, dated 2011).

Structures can show the parent of a compound that is named as a salt. Where two headings read alike, the source gives them in different places.

T1 sequence (O70528 whole entry): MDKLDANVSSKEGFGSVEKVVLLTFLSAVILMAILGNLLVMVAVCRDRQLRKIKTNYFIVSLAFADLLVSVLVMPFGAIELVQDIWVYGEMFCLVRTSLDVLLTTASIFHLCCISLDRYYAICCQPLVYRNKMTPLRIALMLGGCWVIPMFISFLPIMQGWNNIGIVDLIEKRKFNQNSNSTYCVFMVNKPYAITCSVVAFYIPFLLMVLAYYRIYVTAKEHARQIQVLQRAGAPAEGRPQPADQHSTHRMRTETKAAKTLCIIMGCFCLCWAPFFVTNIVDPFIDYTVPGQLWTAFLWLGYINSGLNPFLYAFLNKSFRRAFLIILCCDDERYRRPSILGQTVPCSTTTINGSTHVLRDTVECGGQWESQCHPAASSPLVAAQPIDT

In the case of `COc1cc(N)c(Cl)cc1C(=O)NC[C@H]1CN(CC2CCN(C(=O)c3cccc(N(C)C)c3)CC2)CCO1` [Example 171], the IC50 at 5-HT4 receptor (setting [1]) came to 2.16 nM. At 5-HT4 receptor, `COc1cc(N)c(Cl)cc1C(=O)NC[C@H]1CN(CC2CCN(C(=O)Oc3ccccc3)CC2)CCO1` [Example 106] yielded an IC50 of 6.12 nM. Regarding `COc1cc(N)c(Cl)cc1C(=O)NC[C@H]1CN(CC2CCN(C(=O)c3ccc(O)cc3)CC2)CCO1` [Example 202], the half-inhibitory concentration (IC50) on 5-HT4 receptor (setting [1]) came out at 4.52 nM. Regarding `CS(=O)(=O)N1CCC(CN2CCOC(CNC(=O)c3cc(Cl)c(N)c4c3OCC4)C2)CC1` (stereo not drawn) [Example 140], at 5-HT4 receptor (setting [1]), the IC50 worked out at 2.84 nM. Consider `Nc1c(Cl)cc(C(=O)NC[C@H]2CN(CC3CCN(C(=O)CO)CC3)CCO2)c2c1CCO2` [Example 233, (S)-4-amino-5-chloro-N-[{4-[(1-hydroxyacetyl-4-piperidinyl)methyl]-2-morpholinyl}methyl]-2,3-dihydrobenzo[b]furan-7-carboxamide], for which the IC50 on 5-HT4 receptor (setting [1]) was 12.1 nM. In the experiment with Male Slc-ddy mice, the Effect entry is “++”. In the case of `CCOc1cc(N)c(Cl)cc1C(=O)NC[C@H]1CN(CC2CCN(C(=O)c3ccc(OC)cc3)CC2)CCO1` [Example 126], the IC50 at 5-HT4 receptor (setting [1]) was found to be 2.32 nM. With `CCCOC(=O)N1CCC(CN2CCO[C@@H](CNC(=O)c3cc(Cl)c(N)cc3OC)C2)CC1` [Example 98], the IC50 on 5-HT4 receptor (setting [1]) was 9.62 nM.

Turning to `COc1cc(N)c(Cl)cc1C(=O)NC[C@H]1CN(CC2CCN(C(=O)c3cccc(F)c3)CC2)CCO1` [Example 113], the IC50 on 5-HT4 receptor (setting [1]) was found to be 2.23 nM. Still for that read-out and setting: for `COc1cc(N)c(Cl)cc1C(=O)NC[C@H]1CN(CC2CCN(C(=O)c3cccc(Br)c3)CC2)CCO1` [Example 117] the value was 0.04 nM; for `COc1cc(N)c(Cl)cc1C(=O)NC[C@H]1CN(CC2CCN(C(=O)NCc3ccccc3C)CC2)CCO1` [Example 60], 1.86 nM. As for `C=CCCCCC(=O)N1CCC(CN2CCOC(CNC(=O)c3cc(Cl)c(N)cc3OCC)C2)CC1` (racemic) [Example 162], at 5-HT4 receptor (setting [1]), the IC50 came out at 7.9 nM.

For `COc1ccc(CNC(=O)N2CCC(CN3CCO[C@@H](CNC(=O)c4cc(Cl)c(N)cc4OC)C3)CC2)cc1` [Example 61], the IC50 on 5-HT4 receptor (setting [1]) amounted to 3.7 nM. As for `CCOc1cc(N)c(Cl)cc1C(=O)NCC1CN(CC2CCN(C(=O)c3ccccc3)CC2)CCO1` (stereo not drawn) [Example 112], the IC50 at 5-HT4 receptor (setting [1]) was determined as 3.01 nM. Turning to `Nc1c(Cl)cc(C(=O)NC[C@H]2CN(CC3CCN(C(=O)C4CCOC4)CC3)CCO2)c2c1CCO2` (stereo partly drawn) [Example 232], the IC50 on 5-HT4 receptor (setting [1]) is 7.34 nM. For the same compound, in the experiment on Male Slc-ddy mice, the Effect result was “++”.

In the case of `COc1cc(N)c(Cl)cc1C(=O)NC[C@H]1CN(CC2CCN(C(=O)c3cccc4c3OCC4)CC2)CCO1` [Example 177], at 5-HT4 receptor (setting [1]), the IC50 came to 1.62 nM. Turning to `COc1cc(N)c(Cl)cc1C(=O)NC[C@H]1CN(CC2CCN(C(=O)c3cccc(O)c3)CC2)CCO1` [Example 201], at 5-HT4 receptor (setting [1]), the IC50 was 4.45 nM. For the compound `COc1cc(N)c(Cl)cc1C(=O)NC[C@H]1CN(CC2CCN(C(=O)c3ccc(Cl)cc3)CC2)CCO1` [Example 115], the concentration for half-maximal inhibition (IC50) at 5-HT4 receptor (setting [1]) was 2.48 nM. For the same compound, the Effect entry in the experiment with Male Slc-ddy mice was “+”. As to `COc1cc(N)c(Cl)cc1C(=O)NC[C@H]1CN(CC2CCN(C(=O)Nc3cccc(C(F)(F)F)c3)CC2)CCO1` [Example 54], on 5-HT4 receptor (setting [1]), the concentration for half-maximal inhibition (IC50) was found to be 5.91 nM. The Effect entry in the experiment with Male Slc-ddy mice is given as “+”. With `Nc1c(Cl)cc(C(=O)NCC2CN(CC3CCN(C(=O)N4CCCC4)CC3)CCO2)c2c1CCO2` (stereo not drawn) [Example 134], the IC50 at 5-HT4 receptor (setting [1]) was determined as 1.5 nM.

As to `CCOc1cc(N)c(Cl)cc1C(=O)NC[C@H]1CN(CC2CCN(C(=O)c3ccccc3OC(C)=O)CC2)CCO1` [Example 167], the IC50 at 5-HT4 receptor (setting [1]) amounted to 6.36 nM. `COc1cc(N)c(Cl)cc1C(=O)NC[C@H]1CN(CC2CCN(C(=O)N(C(C)C)C(C)C)CC2)CCO1.Cl` [Example 88]: the Effect result in the experiment on Male Slc-ddy mice is reported as “++”.

`COc1cc(N)c(Cl)cc1C(=O)NC[C@H]1CN(CC2CCN(C(=O)c3ccc(C#N)cc3)CC2)CCO1` [Example 230]: the 50% inhibitory concentration (IC50) on 5-HT4 receptor (setting [1]) came to 0.64 nM. Besides, the Effect entry in the experiment with Male Slc-ddy mice is on record as “++”. Take `C=CCCC=CC(=O)N1CCC(CN2CCOC(CNC(=O)c3cc(Cl)c(N)cc3OCC)C2)CC1` (racemic) [Example 164]: the IC50 on 5-HT4 receptor (setting [1]) was 7.5 nM. On the same count and under the same terms, for `COc1cc(N)c(Cl)cc1C(=O)NC[C@H]1CN(CC2CCN(C(=O)OCC(C)C)CC2)CCO1` [Example 102] the value was 6.79 nM; for `COc1cc(N)c(Cl)cc1C(=O)NC[C@H]1CN(CC2CCN(C(=O)c3ccccc3C)CC2)CCO1` [Example 118], 1.7 nM. Still for that read-out and setting: the figure for `CCOc1cc(N)c(Cl)cc1C(=O)NCC1CN(CC2CCN(C(=O)N3CCCC3)CC2)CCO1` (stereo not drawn) [Example 90, 4-amino-5-chloro-2-ethoxy-N-[{4-[(1-(1-pyrrolidinecarbonyl)-4-piperidinyl)-methyl]-2-morpholinyl}methyl]benzamide 1.5 fumarate] is 6.98 nM.

In the case of `COc1cc(N)c(Cl)cc1C(=O)NC[C@H]1CN(CC2CCN(C(=O)CC3CCNCC3)CC2)CCO1` [Example 194], the IC50 at 5-HT4 receptor (setting [1]) turned out to be 10.1 nM. Turning to `COc1cc(N)c(Cl)cc1C(=O)NC[C@H]1CN(CC2CCN(C(=O)c3ccccc3Oc3ccccc3)CC2)CCO1` [Example 170], on 5-HT4 receptor (setting [1]), the IC50 worked out at 5.65 nM. Turning to `COc1cc(N)c(Cl)cc1C(=O)NC[C@H]1CN(CC2CCN(C(=O)c3cccc(OC(C)=O)c3)CC2)CCO1` [Example 168], the IC50 at 5-HT4 receptor (setting [1]) worked out at 5.17 nM. Turning to `COc1cc(N)c(Cl)cc1C(=O)NC[C@H]1CN(CC2CCN(C(=O)Nc3cccc(C(C)=O)c3)CC2)CCO1` [Example 56], the IC50 at 5-HT4 receptor (setting [1]) was found to be 2.9 nM.

With `COc1cc(N)c(Cl)cc1C(=O)NC[C@H]1CN(CC2CCN(C(=O)NCCc3ccccc3)CC2)CCO1` [Example 63], the IC50 at 5-HT4 receptor (setting [1]) was 8.6 nM. The same measure, in the same setting: for `COc1cc(N)c(Cl)cc1C(=O)NC[C@H]1CN(CC2CCN(C(=O)Nc3cc(C)cc(C)c3)CC2)CCO1` [Example 57] the value was 1.82 nM; for `COc1cc(N)c(Cl)cc1C(=O)NC[C@H]1CN(CC2CCN(C(=O)c3ccc(C)cc3)CC2)CCO1` [Example 120], 2.63 nM; for `COc1cc(N)c(Cl)cc1C(=O)NC[C@H]1CN(CC2CCN(C(=O)c3ccc(C)s3)CC2)CCO1` [Example 178], 1.24 nM. With `CCOc1cc(N)c(Cl)cc1C(=O)NCC1CN(CC2CCN(C(=O)c3cccc(F)c3)CC2)CCO1` (stereo not drawn) [Example 114], on 5-HT4 receptor (setting [1]), the IC50 came out at 2.22 nM. `COc1cc(N)c(Cl)cc1C(=O)NC[C@H]1CN(CC2CCN(C(=O)c3ccc(C(C)(C)C)cc3)CC2)CCO1` [Example 123]: the IC50 on 5-HT4 receptor (setting [1]) amounted to 2.11 nM. Compound `COc1ccccc1OC(=O)N1CCC(CN2CCO[C@@H](CNC(=O)c3cc(Cl)c(N)cc3OC)C2)CC1` [Example 107] came in with an IC50 at 5-HT4 receptor of 3.43 nM. Consider `C=CC=CC(=O)N1CCC(CN2CCOC(CNC(=O)c3cc(Cl)c(N)cc3OCC)C2)CC1` (racemic) [Example 163], for which the IC50 on 5-HT4 receptor (setting [1]) worked out at 6.58 nM. The same measure, in the same setting: the figure for `CCOc1cc(N)c(Cl)cc1C(=O)NC[C@H]1CN(CC2CCN(C(=O)n3ccnc3)CC2)CCO1` [Example 206, (S)-4-amino-5-chloro-2-ethoxy-N-[{4-[(1-imidazolecarbonyl-4-piperidinyl)-methyl]-2-morpholinyl}methyl]benzamide] is 10.6 nM. `CCOc1cc(N)c(Cl)cc1C(=O)NC[C@H]1CN(CC2CCN(C(=O)NC)CC2)CCO1` [Example 47]: the IC50 on 5-HT4 receptor (setting [1]) stood at 8.04 nM. The same measure, in the same setting: for `COc1cc(N)c(Cl)cc1C(=O)NC[C@H]1CN(CC2CCN(C(=O)NCc3ccccc3)CC2)CCO1` [Example 59] the value was 2.83 nM.

On to `COc1cc(N)c(Cl)cc1C(=O)NC[C@H]1CN(CC2CCN(C(=O)c3ccc(-c4ccccc4)cc3)CC2)CCO1` [Example 175], for which the half-inhibitory concentration (IC50) on 5-HT4 receptor (setting [1]) came out at 6.13 nM. For the compound `COc1cc(N)c(Cl)cc1C(=O)NC[C@H]1CN(CC2CCN(C(=O)c3ccc(N)c(Cl)c3)CC2)CCO1` [Example 176], the IC50 at 5-HT4 receptor (setting [1]) is 0.72 nM. With `CN(C)C(=O)N1CCC(CN2CCO[C@@H](CNC(=O)c3cc(Cl)c(N)c4c3OCC4)C2)CC1` [Example 136], the IC50 on 5-HT4 receptor (setting [1]) was found to be 4.26 nM. With `COC(=O)c1ccc(C(=O)N2CCC(CN3CCO[C@@H](CNC(=O)c4cc(Cl)c(N)cc4OC)C3)CC2)cc1` [Example 174], the half-inhibitory concentration (IC50) at 5-HT4 receptor (setting [1]) is 8.52 nM. In the case of `COc1ccccc1NC(=O)N1CCC(CN2CCO[C@@H](CNC(=O)c3cc(Cl)c(N)cc3OC)C2)CC1` [Example 53], the IC50 at 5-HT4 receptor (setting [1]) amounted to 1.46 nM. The same measure, in the same setting: the figure for `COc1cc(N)c(Cl)cc1C(=O)NC[C@H]1CN(CC2CCN(C(=O)c3ccc(N(C)C)cc3)CC2)CCO1` [Example 172] is 0.87 nM. `COc1cc(N)c(Cl)cc1C(=O)NC[C@H]1CN(CC2CCN(C(=O)c3ccco3)CC2)CCO1` [Example 131]: the 50% inhibitory concentration (IC50) at 5-HT4 receptor (setting [1]) stood at 6.96 nM. As for `COc1cc(N)c(Cl)cc1C(=O)NC[C@H]1CN(CC2CCN(C(=O)NCc3ccc(Cl)cc3Cl)CC2)CCO1` [Example 62], the IC50 at 5-HT4 receptor (setting [1]) stood at 2.51 nM.

The term IC50 denotes the concentration that gives 50% inhibition.
